Data: patent US20210076677A1, “NOVEL PESTICIDAL COMBINATIONS” (priority 2017, published 2021)

Columns and labels:
[1] = system: Alternaria solani in tomato; experiment: Field trial, early blight control in tomato (Colby synergy); format: in vivo; details: 10 days after application, Mancozeb + Azoxystrobin 1750 g/ha, Chlorantriniprole 150 g/ha
Method: Studies were conducted to compare the efficacy of the combination of amide insecticides with fungicides selected from the various classes and to compare their observed efficacy with the ‘expected_ efficacy when amide insecticides and fungicides were used to treat fungal and insect pests. Any difference between the observed and ‘expected_ efficacy could be attributed to synergy between the two compounds in the control of fungal and insect pests. The expected efficacy of a combination of amide insecticides with fungicides was calculated using the well-established Colby method. […] An unexpected enhancement in efficacy of the combination is then determined by comparing the observed response of the combination to the expected (or predicted) response as calculated from the observed response of each individual component alone. If the observed response of the combination is greater than the expected (or predicted) response, or stated conversely, if the difference between the observed and expected response is greater than zero, then the combination is said to be synergistic or unexpectedly effective. (Colby, S. R., Weeds, 1967(15), p. 20-22) The Colby method requires only a single dose of each active applied alone and the mixture of both doses. The formula used to calculate the expected efficacy (EE) which was compared with the observed efficacy (OE) to determine the efficacy of the present invention is explained hereinbelow: […] The efficacy of the individual actives of the invention and their combinations were evaluated on various fungal and insect pests. The trial was carried out in Randomized Complete Block (RCB) method, all field trials were conducted using this method. Each trial was replicated three times and conducted under GEP guidelines. Application volumes were varied for each mixture. Such field trials were carried out at various locations so as to generate independent data, the locations were chosen randomly across India. […]

[2] = system: Helicoverpa armigera in tomato; experiment: Field trial, fruit borer control in tomato (Colby synergy); format: in vivo; details: 10 days after application, Mancozeb + Azoxystrobin 1750 g/ha, Chlorantriniprole 150 g/ha
Method: Studies were conducted to compare the efficacy of the combination of amide insecticides with fungicides selected from the various classes and to compare their observed efficacy with the ‘expected_ efficacy when amide insecticides and fungicides were used to treat fungal and insect pests. Any difference between the observed and ‘expected_ efficacy could be attributed to synergy between the two compounds in the control of fungal and insect pests. The expected efficacy of a combination of amide insecticides with fungicides was calculated using the well-established Colby method.
In the Colby method, the expected (or predicted) response of a combination of actives is calculated by taking the product of the observed response for each individual component of the combination when applied alone divided by 100 and subtracting this value from the sum of the observed response for each component when applied alone. An unexpected enhancement in efficacy of the combination is then determined by comparing the observed response of the combination to the expected (or predicted) response as calculated from the observed response of each individual component alone. If the observed response of the combination is greater than the expected (or predicted) response, or stated conversely, if the difference between the observed and expected response is greater than zero, then the combination is said to be synergistic or unexpectedly effective. (Colby, S. R., Weeds, 1967(15), p. 20-22) The Colby method requires only a single dose of each active applied alone and the mixture of both doses. […]
The efficacy of the individual actives of the invention and their combinations were evaluated on various fungal and insect pests. […]
Further field trials were carried out to test the synergy of the combination amide […] chlorantriniprole in combination with fungicides for the control of Helicoverpa armigera in tomato. […] The percentage efficacy was calculated after 10 days of applications and the results are recorded in the table below: […]

## CNC(=O)c1cc(Cl)cc(C)c1NC(=O)c1cc(Br)nn1-c1ncccc1Cl [Chlorantriniprole, chlorantraniliprole]
[1]; first trial (columns c2/c3)
  % Disease control, Early Blight Control in tomato 10DAA, Actual: 1.91%
[1]; second trial (columns c4/c5)
  % Disease control, Early Blight Control in tomato 10DAA, Actual: 1.86%
[1]; third trial (columns c6/c7)
  % Disease control, Early Blight Control in tomato 10DAA, Actual: 2.70%
[2]; first trial (columns c2/c3)
  % control of pest, Fruit Borer control in tomato 10DAA, Actual: 75.8%
[2]; second trial (columns c4/c5)
  % control of pest, Fruit Borer control in tomato 10DAA, Actual: 86.4%
[2]; third trial (columns c6/c7)
  % control of pest, Fruit Borer control in tomato 10DAA, Actual: 88.4%
